Results on one compound are retold here after article PMC6171417, “Carbonic anhydrase inhibition with a series of novel benzenesulfonamide-triazole conjugates” (Journal of Enzyme Inhibition and Medicinal Chemistry, 2018).

Holding throughout (assay): cells
Design in all cases: species or system NCI human tumour cell line panel; NCI one-dose anti-proliferative screen, human tumour cell line panel, growth inhibition percent (GI%)

The subject of test [1] is IGROV1. The conditions noted are these: Homo sapiens, IGROV-1; growth inhibition (GI%), single dose.
Test [2] has as its system LOX IMVI. The conditions noted are these: Homo sapiens, LOX IMVI; growth inhibition (GI%), single dose.
The test system of test [3] is MALME-3M. The conditions noted are these: Homo sapiens, Malme-3M; growth inhibition (GI%), single dose.
Test [4] has as its system U251. The conditions noted are these: Homo sapiens, U-251; growth inhibition (GI%), single dose.
Test [5] relates to SW-620. Particulars: Homo sapiens, SW-620; growth inhibition (GI%), single dose.
Test [6] has as its system T-47D. The conditions noted are these: Homo sapiens, T47D; growth inhibition (GI%), single dose.
Test [7] deals with EKVX. The conditions noted are these: Homo sapiens, EKVX; growth inhibition (GI%), single dose.
For test [8], the system named is M14. The conditions noted are these: Homo sapiens, M14; growth inhibition (GI%), single dose.
Test [9] deals with OVCAR-4. Particulars: Homo sapiens, OVCAR-4; growth inhibition (GI%), single dose.
Test [10] concerns NCI-H522. The conditions noted are these: Homo sapiens, NCI-H522; growth inhibition (GI%), single dose.
Test [11] has as its system SN12C. Particulars: Homo sapiens, SN12C; growth inhibition (GI%), single dose.
Test [12] relates to NCI-H226. Particulars: Homo sapiens, NCI-H226; growth inhibition (GI%), single dose.
In test [13] the test system is MDA-MB-468. Particulars: Homo sapiens, MDA-MB-468; growth inhibition (GI%), single dose.
The test system of test [14] is HOP-62. Particulars: Homo sapiens, HOP-62; growth inhibition (GI%), single dose.
The subject of test [15] is HCT-15. Particulars: Homo sapiens, HCT-15; growth inhibition (GI%), single dose.
The subject of test [16] is MDA-MB-435. Particulars: Homo sapiens, MDA-MB-435; growth inhibition (GI%), single dose.
The subject of test [17] is NCI-H322M. The conditions noted are these: Homo sapiens, NCI-H322M; growth inhibition (GI%), single dose.
For test [18], the system named is PC-3. The conditions noted are these: Homo sapiens, PC-3; growth inhibition (GI%), single dose.

With `N#Cc1nnn(-c2ccc(S(N)(=O)=O)cc2)c1NCC(=O)c1ccccc1` [compound 7, 7], the inhibition at 10 µM was 0.5% in [1]; 5.9% in test [2]; 3.6% in test [3]; 6.4% in test [4]; 2.8% in test [5]; 4.6% in test [6]. Also, the inhibition at 10 µM in test [7] came to 9.2%; in test [8], 2.6%; in test [9], 10.2%; in [10], 16.1%; in [11], 2.9%; in test [12], 11.8%. The inhibition at 10 µM in [13] was 3.3%; in test [14], 8.3%; in [15] it was 1.7%; in test [16], 8.3%; in test [17], 8.8%; in test [18], 15.9%.
